Results from patent US6528532B1, “Urea derivatives as HIV aspartyl protease inhibitors” (Pharmacor Inc., priority 2002, dated 2003).

Target: HIV protease (Human immunodeficiency virus type 1 group M subtype B, UniProt P04585)
Assay: Enzymatic (FRET fluorometric) assay for determining the inhibition constant (Ki) of compounds targeting the HIV protease
Assay type: biochemical
Conditions: FRET substrate (EDANS/DABCYL), equation of Henderson; read-out: Ki
Text: Enzymatic Assay for Determining the Inhibition Constant (Ki) of Synthetic Compounds Targeting the HIV Protease
This is a fluorometric assay based on the cleavage by protease of a substrate carrying a donor group (EDANS) and an acceptor group (DABCYL) on each side of the cleavage site, interacting together through fluorescence resonance energy transfer (FRET) as described by Matayoshi et al. (Science 247:[…], 1990).
After calculation of Vo and Vi, the inhibition constant (Ki) of the compound is determined using the equation of Henderson: [formula]
where Vo=the enzyme's initial velocity
Vi=the enzyme velocity in the presence of the inhibitory compound,
[I]=inhibitor concentration, [S]=substrate concentration,
Km=Michaelis-Menten constant and Kiapp=apparent Ki
Graphs are traced and the Ki determined using GraphPad Prism software v. 3.0.

Row | Compound | Ki [nM]
1 | Cc1ccc(S(=O)(=O)N(CC(C)C)[C@@H](CCCCNC(=O)NCc2ccccc2)C(=O)O)cc1 [Example 2, Nα-Isobutyl-Nα-(4-methylbenzenesulfonyl)-Nε-(benzylaminocarbonyl)-L-lysine] | 32
2 | Cc1ccc(S(=O)(=O)N(CC(C)C)[C@@H](CCCCNC(=O)NCCc2c[nH]c3ccccc23)C(=O)O)cc1 [Example 6, Nα-Isobutyl-Nα-(4-methylbenzenesulfonyl)-Nε-[2′-(3-indolyl)ethylaminocarbonyl]-L-lysine] | 40
3 | Cc1ccc(S(=O)(=O)N(CC(C)C)[C@@H](CCCCNC(=S)NCCc2c[nH]c3ccccc23)C(=O)O)cc1 [Example 15] | 111
4 | Cc1ccc(S(=O)(=O)N(CC(C)C)[C@@H](CCCCNC(=S)NCc2ccccc2)C(=O)O)cc1 [Example 16, Nα-Isobutyl-Nα-(4-methylbenzenesulfonyl)-Nε-benzylaminothiocarbonyl-L-lysine] | 152
5 | CC(C)CN([C@@H](CCCCNC(=O)NCc1ccccc1)C(=O)O)S(=O)(=O)c1ccc(N)cc1 [Example 18, Nα-(4-Aminobenzenesulfonyl)-Nα-isobutyl-Nε-benzylaminocarbonyl-L-lysine] | 200
6 | Cc1ccc(S(=O)(=O)N(CC(C)C)[C@@H](CCCCNC(=O)NCCc2ccccc2)C(=O)O)cc1 [Example 21, Nα-Isobutyl-Nα-(4-methylbenzenesulfonyl)-Nε-(phenethylaminocarbonyl)-L-lysine] | 167
7 | Cc1ccc(S(=O)(=O)N(CC(C)C)[C@@H](CCCCNC(=O)N[C@@H]2CCc3ccccc32)C(=O)O)cc1 [Example 24, (1S,1′R) Nα-Isobutyl-Nα-(4-methylbenzenesulfonyl)-Nε-(indanyl-1′-aminocarbonyl)-S-lysine] | 196
8 | Cc1ccc(S(=O)(=O)N(CC(C)C)[C@@H](CCCCNC(=NC#N)NCc2ccccc2)C(=O)O)cc1 [Example 28, Nα-Isobutyl-Nα-(4-methylbenzenesulfonyl)-Nε-(benzylaminocarbonyl-N-cyanoamidine)-L-lysine] | 63
9 | Cc1ccc(S(=O)(=O)N(CC(C)C)C(CCCCNC(=NC#N)NCCc2c[nH]c3ccccc23)C(=O)O)cc1 [Example 29, Nα-Isobutyl-Nα-(4-methylbenzenesulfonyl)-Nε-[2′-(3-indolyl)ethylaminocarbonyl-N-cyanoamidine]-L-lysine] | 8.2
10 | Cc1ccc(S(=O)(=O)N(CC(C)C)[C@@H](CCCCNC(=O)N(Cc2ccccc2)Cc2ccccc2)C(=O)O)cc1 [Example 32, Nα-Isobutyl-Nα-(4-methylbenzenesulfonyl)-Nε-(N′,N′-dibenzylaminocarbonyl)-L-lysine] | 7.2
11 | Cc1ccc(S(=O)(=O)N(CC(C)C)[C@H](CO)CCCCNC(=O)N(Cc2ccccc2)Cc2ccccc2)cc1 [Example 33, (2S) 2-N-Isobutyl-2-N-(4-methylbenzenesullonyl)-6-N-(N′,N′-dibenzylaminocarbonyl)-2,6-diaminohexanol] | 17
12 | Cc1ccc(S(=O)(=O)N(CC(C)C)[C@H](CO)CCCCNC(=S)N(Cc2ccccc2)Cc2ccccc2)cc1 [Example 34, (2S) 2-N-Isobutyl-2-N-(4-methylbenzenesulfonyl)-6-N-(N′,N′-dibenzylaminothiocarbonyl)-2,6-diaminohexanol] | 78
13 | CC(C)CN([C@@H](CCCCNC(=O)N(Cc1ccccc1)Cc1ccccc1)C(=O)O)S(=O)(=O)c1ccc(N)cc1 [Example 36, Nα-(4-Aminobenzenesulfonyl)-Nα-isobutyl-Nε-(N′,N′-dibenzylaminocarbonyl)-L-lysine] | 1.8
14 | Cc1ccc(S(=O)(=O)N(CC(C)C)[C@@H](CCCCNC(=S)N(Cc2ccccc2)Cc2ccccc2)C(=O)O)cc1 [Example 37, Nα-Isobutyl-Nα-(4-methylbenzenesulfonyl)-Nε-(N′,N′-dibenzylaminothiocarbonyl)-L-lysine] | 12
15 | Cc1ccc(S(=O)(=O)N(CC(C)C)[C@@H](CCCCNC(=O)N(Cc2ccccc2)Cc2ccncc2)C(=O)O)cc1 [Example 38, Nα-Isobutyl-Nα-(4-methylbenzenesulfonyl)-Nε-[N′-benzyl-N′-(4-picolyl)aminocarbonyl]-L-lysine] | 3.7
16 | Cc1ccc(S(=O)(=O)N(CC(C)C)[C@@H](CCCCNC(=O)N(Cc2ccccc2)C(C)C)C(=O)O)cc1 [Example 39, Nα-Isobutyl-Nα-(4-methylbenzenesulfonyl)-Nε-[(N′-benzyl-N′-iso-propyl)aminocarbonyl]-L-lysine] | 19
17 | Cc1ccc(S(=O)(=O)N(CC(C)C)[C@@H](CCCCNC(=O)N(C)Cc2ccccc2)C(=O)O)cc1 [Example 40, Nα-Isobutyl-Nα-(4-methylbenzenesulfonyl)-Nε-[(N′-benzyl-N′-methyl)aminocarbonyl]-L-lysine] | 55

Row | Compound | Ki [nM]
18 | CC(C)CN([C@H](CO)CCCCNC(=O)N(Cc1ccccc1)Cc1ccccc1)S(=O)(=O)c1ccc(N)cc1 [Example 41, (2S) 2-N-(4-Aminobenzenesulfonyl)-2-N-isobutyl-6-N-(N′,N′-dibenzylaminocarbonyl)-2,6-diaminohexanol] | 12
19 | Cc1ccc(S(=O)(=O)N(CC(C)C)[C@@H](CCCCNC(=O)N(Cc2ccccc2)Cc2cccnc2)C(=O)O)cc1 [Example 42, Nα-Isobutyl-Nα-(4-methylbenzenesulfonyl)-Nε-[N′-benzyl-N′-(3-picolyl)aminocarbonyl]-L-lysine] | 3.7
20 | COc1ccc(CN(Cc2ccncc2)C(=O)NCCCC[C@@H](C(=O)O)N(CC(C)C)S(=O)(=O)c2ccc(C)cc2)cc1 [Example 43, Nα-Isobutyl-Nα-(4-methylbenzenesulfonyl)-Nε-[N′-(4-methoxybenzyl)-N′-(4-picolyl)aminocarbonyl]-L-lysine] | 7.9
21 | Cc1ccc(S(=O)(=O)N(CC(C)C)[C@@H](CCCCNC(=O)N(Cc2ccncc2)Cc2ccncc2)C(=O)O)cc1 [Example 44, Nα-Isobutyl-Nα-(4-methylbenzenesulfonyl)-Nε-[N′,N′-di-(4-picolyl)aminocarbonyl]-L-lysine] | 187
22 | COc1ccc(CN(Cc2ccncc2)C(=O)NCCCC[C@@H](CO)N(CC(C)C)S(=O)(=O)c2ccc(C)cc2)cc1 [Example 45, (2S) 2-N-Isobutyl-2-N-(4-methylbenzenesulfonyl)-6-N-[N′-(4-methoxybenzyl)-N′-(4-picolyl)aminocarbonyl]-2,6-diaminohexanol] | 54
23 | CC(C)CN([C@@H](CCCCNC(=O)N(Cc1ccccc1)Cc1cccnc1)C(=O)O)S(=O)(=O)c1ccc(N)cc1 [Example 47, Nα-(4-Aminobenzenesulfonyl)-Nα-isobutyl-Nε-[N′-benzyl-N′-(3-picolyl)aminocarbonyl]-L-lysine] | 2.4
24 | CC(C)CN([C@@H](CCCCNC(=O)N(Cc1ccccc1)Cc1ccncc1)C(=O)O)S(=O)(=O)c1ccc(N)cc1 [Example 48, Nα-(4-Aminobenzenesulfonyl)-Nα-isobutyl-Nε-[N′-benzyl-N′-(4-picolyl)aminocarbonyl]-L-lysine] | 12
25 | COc1ccc(CN(Cc2ccncc2)C(=O)NCCCC[C@@H](C(=O)O)N(CC(C)C)S(=O)(=O)c2ccc(N)cc2)cc1 [Example 49, Nα-(4-Aminobenzenesulfonyl)-Nα-isobutyl-Nε-[N′-(4-methoxybenzyl)-N′-(4-picolyl)aminocarbonyl]-L-lysine] | 12
26 | CC(C)CN([C@H](CO)CCCCNC(=O)N(Cc1ccccc1)Cc1cccnc1)S(=O)(=O)c1ccc(N)cc1 [Example 50, (2S) 2-N-(4-Aminobenzenesulfonyl)-2-N-isobutyl-6-N-[N′-benzyl-N′-(3-picolyl)aminocarbonyl]-2,6-diaminohexanol] | 34
27 | CC(C)CN([C@H](CO)CCCCNC(=O)N(Cc1ccccc1)Cc1ccncc1)S(=O)(=O)c1ccc(N)cc1 [Example 52, (2S) 2-N-(4-Aminobenzenesulfonyl)-2-N-isobutyl-6-N-[N′-benzyl-N′-(4-picolyl)aminocarbonyl]-2,6-diaminohexanol] | 90
28 | COc1ccc(CN(Cc2ccncc2)C(=O)NCCCC[C@@H](CO)N(CC(C)C)S(=O)(=O)c2ccc(N)cc2)cc1 [Example 53, (2S) 2-N-(4-Aminobenzenesulfonyl)-2-N-isobutyl-6-N-[N′-(4-methoxybenzyl)-N′-(4-picolyl)aminocarbonyl]-2,6-diaminohexanol] | 90
29 | Cc1ccc(S(=O)(=O)N(CC(C)C)[C@@H](CCCCNC(=O)N(Cc2ccccc2)Cc2ccccc2[N+](=O)[O-])C(=O)O)cc1 [Example 54, Nα-Isobutyl-Nα-(4-methylbenzenesulfonyl)-Nε-[N′-benzyl-N′-(2-nitrobenzyl)aminocarbonyl]-L-lysine] | 0.9
30 | Cc1ccc(S(=O)(=O)N(CC(C)C)[C@@H](CCCCNC(=O)N(Cc2ccccc2)Cc2cccc([N+](=O)[O-])c2)C(=O)O)cc1 [Example 55, Nα-Isobutyl-Nα-(4-methylbenzenesulfonyl)-Nε-[N′-benzyl-N′-(3-nitrobenzyl)aminocarbonyl]-L-lysine] | 1.1
31 | Cc1ccc(S(=O)(=O)N(CC(C)C)[C@@H](CCCCNC(=O)N(Cc2ccccc2)Cc2ccc([N+](=O)[O-])cc2)C(=O)O)cc1 [Example 56, Nα-Isobutyl-Nα-(4-methylbenzenesulfonyl)-Nε-[N′-benzyl-N′-(4-nitrobenzyl)aminocarbonyl]-L-lysine] | 1.5
32 | Cc1ccc(S(=O)(=O)N(CC(C)C)[C@@H](CCCCNC(=O)N(Cc2ccccc2)Cc2ccccc2N)C(=O)O)cc1 [Example 57, Nα-Isobutyl-Nα-(4-methylbenzenesulfonyl)-Nε-[N′-(2-ninobenzyl)-N′-benzylaminocarbonyl]-L-lysine] | 1.7
33 | Cc1ccc(S(=O)(=O)N(CC(C)C)[C@H](CO)CCCCNC(=O)N(Cc2ccccc2)Cc2ccccc2N)cc1 [Example 62, (2S) 2-N-Isobutyl-2-N-(4-methylbenzenesulfonyl)-6-N-[N′-(2-aminobenzyl)-N′-benzylaminocarbonyl]-2,6-diaminohexanol] | 39
